Where a name gives a salt, the structure may show the parent alone. Read-outs that look alike come from different tables or passages of the source.
How the values were obtained:
ORL-1 receptor [1] = target: ORL-1 receptor (Homo sapiens, UniProt P41146); assay: Receptor binding studies, radioligand [3H]-AcRYYRWK-NH2
Experimental: The receptor binding studies were carried out on 96-well plates; the incubation medium was Tris HCl pH 7.4 (4° C.) containing MgCl2 (5 mM), EGTA (0.2 mM), BSA (0.1%), with a final volume of 1.0 ml, using as radioligand [^3H]-AcRYYRWK-NH2 (Amersham, 103 Ci/mmol). The samples were incubated at 37° C. for 120 min. and were then filtered off via Whatman GF/B filters pre-treated with 0.2% polyethylenimine. The filters were washed three times with Tris HCl buffer pH 7.4 (4° C.). The radioactivity present on the filters was measured using a Packard Top Count microplate scintillation counter.

ORL-1 receptor [2] = target: T1, ORL-1 receptor (Cavia porcellus, UniProt P47748); assay: Electrically stimulated guinea pig ileum (GPI) assay; assay type: cell-based
T1 construct: evaluated for ORL-1 functional activity in electrically stimulated guinea pig ileum; from tissue; host or cells: guinea pig ileum
T1 sequence (P47748 whole entry): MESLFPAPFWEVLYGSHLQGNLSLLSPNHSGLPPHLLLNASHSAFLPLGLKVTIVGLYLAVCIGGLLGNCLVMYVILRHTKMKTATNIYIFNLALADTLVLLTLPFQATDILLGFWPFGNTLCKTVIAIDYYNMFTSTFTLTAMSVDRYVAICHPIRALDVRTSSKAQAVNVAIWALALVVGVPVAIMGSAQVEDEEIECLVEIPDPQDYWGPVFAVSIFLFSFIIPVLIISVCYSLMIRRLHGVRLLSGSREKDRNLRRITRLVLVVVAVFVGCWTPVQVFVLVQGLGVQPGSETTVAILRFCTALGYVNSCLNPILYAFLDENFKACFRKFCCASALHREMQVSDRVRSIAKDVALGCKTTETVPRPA
Experimental: Compounds of the invention are evaluated for ORL-1 functional activity in electrically stimulated guinea pig ileum, in agreement with the experimental protocol described in Caló et. al., Br. J. Pharmacol. 129, 1183, (2000). The ORL-1 antagonist activity (pKb) is evaluated against the endogenous ORL-1 agonist N/OFQ.

[3] = ORL-1 receptor, radioligand [3H]-AcRYYRWK-NH2, read-out: Binding affinity Ki
[4] = electrically stimulated guinea pig ileum, against the endogenous ORL-1 agonist N/OFQ, read-out: Antagonist activity (GPI) pKb vs N/OFQ (converted)

Sequence of ORL-1 receptor (Homo sapiens, UniProt P41146) (P41146 whole entry): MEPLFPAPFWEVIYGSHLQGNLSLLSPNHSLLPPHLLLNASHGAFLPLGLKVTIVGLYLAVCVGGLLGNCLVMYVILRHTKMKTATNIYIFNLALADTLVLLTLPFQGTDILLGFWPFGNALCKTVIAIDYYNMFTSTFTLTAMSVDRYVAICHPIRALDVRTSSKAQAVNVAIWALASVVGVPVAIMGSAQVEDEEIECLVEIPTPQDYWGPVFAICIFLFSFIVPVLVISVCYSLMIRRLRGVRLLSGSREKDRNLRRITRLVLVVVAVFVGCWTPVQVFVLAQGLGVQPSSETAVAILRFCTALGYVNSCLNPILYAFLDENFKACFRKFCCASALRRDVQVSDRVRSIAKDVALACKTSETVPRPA

| SMILES | Ki (ORL-1 receptor [1]; [3]) | Kb (ORL-1 receptor [2]; [4]) | Ki (ORL-1 receptor [1]) | Kb (ORL-1 receptor [2]) |
| --- | --- | --- | --- | --- |
| O=C(c1[nH]c2ccccc2c1CN1CCC(c2c(Cl)cccc2Cl)CC1)N1CCN(CCCO)CC1 [Example 75, {3-[4-(2,6-Dichloro-phenyl)-piperidin-1-ylmethyl]-1H-indol-2-yl}-[4-(3-hydroxy-propyl)-piperaizn-1-yl]-methanone] | 1.5 nM | 3.02 nM |  |  |
| Cc1cccc(C)c1C1CCN(Cc2c(C(=O)N3C[C@@H]4C[C@H]3CO4)[nH]c3ccccc23)CC1 [Example 96] | 10 nM | 1.95 nM |  |  |
| Cc1cccc(C)c1C1CCN(Cc2c(C(=O)N3CCN(CCOCCO)CC3)[nH]c3ccccc23)CC1 [Example 97, {3-[4-(2,6-Dimethyl-phenyl)-piperidin-1-ylmethyl]-1H-indol-2-yl}-{4-[2-(2-hydroxy-ethoxy)-ethyl]-piperazin-1-yl}-methanone] |  |  | 6.5 nM | 1 nM |
| Cc1cccc(C)c1C1CCN(Cc2c(C(=O)N3CCC4(CCN(C)C4)C3)[nH]c3ccccc23)CC1 (stereo not drawn) [Example 109, {3-[4-(2,6-Dimethyl-phenyl)-piperidin-1-ylmethyl]-1H-indol-2-yl}-(7-methyl-2,7-diaza-spiro[4.4]non-2-yl)-methanone] | 5.4 nM | 1.23 nM |  |  |
| NC(=O)Cn1c(-c2ccccc2)c(CN2CCC(c3c(Cl)cccc3Cl)CC2)c2ccccc21 [Example 143, 2-(3-[4-(2,6-Dichloro-phenyl)-piperidin-1-ylmethyl]-2-phenyl-indol-1-yl)-acetamide] | 3.2 nM | 2.24 nM |  |  |
| NC(=O)Cn1c(C(=O)N2CCOCC2)c(CN2CCC(c3c(Cl)cccc3Cl)CC2)c2ccccc21 [Example 150, 2-[3-[4-(2,6-Dichloro-phenyl)-piperidin-1-ylmethyl]-2-(morpholine-4-carbonyl)-indol-1-yl]-acetamide hydrochloride] | 8 nM |  |  | 8.91 nM |
| CN1CCC(NC(=O)Cn2c(-c3ccccc3)c(CN3CCC(c4c(Cl)cccc4Cl)CC3)c3ccccc32)CC1 [Example 160, 2-{3-[4-(2,6-Dichloro-phenyl)-piperidin-1-ylmethyl]-2-phenyl-indol-1-yl}-N-(1-methyl-piperidin-4-yl)-acetamide] |  |  | 0.7 nM | 1.74 nM |
| CN1CCC(NC(=O)Cn2c(C(=O)N3CCOCC3)c(CN3CCC(c4c(Cl)cccc4Cl)CC3)c3ccccc32)CC1 [Example 161, 2-[3-[4-(2,6-Dichloro-phenyl)-piperidin-1-ylmethyl]-2-(morpholine-4-carbonyl)-indol-1-yl]-N-(1-methyl-piperidin-4-yl)-acetamide dihydrochloride] | 8.2 nM | 0.955 nM |  |  |
| Cc1cccc(C)c1C1CCN(Cc2c(-c3ccccc3)n(CC(=O)NC3CCN(C)CC3)c3ccccc23)CC1 [Example 165, 2-{3-[4-(2,6-Dimethyl-phenyl)-piperidin-1-ylmethyl]-2-phenyl-indol-1-yl}-N-(1-methyl-piperidin-4-yl)-acetamide ditrifluoroacetate] | 4.6 nM |  |  | 4.17 nM |
